Reference: a melting point compilation (Tetko et al.; mined from patent text by program, amines drawn as free bases though some values may be those of a salt)

| melting point | Structure (SMILES) |
| --- | --- |
| 180 to 181 °C | O=C(O)CCc1cnc2ccccc2c1 |
| 66 to 68 °C | CN(Cc1cn(C23CC4CC(CC(C4)C2)C3)nn1)Cc1cccs1 |
| > 300 °C | COc1ccc(-c2[nH]nc3c2C(=O)c2c(NC(=O)Cc4ccc(N=[N+]=[N-])cc4)cccc2-3)cc1 |
| 175 to 176 °C | COc1ccc(CC(=Nc2ccccc2)NC(=S)NCc2cccnc2)cc1 |
| 121 to 124 °C | COc1ccccc1NC(=O)Nc1nc(N2CCC(O)CC2)nc(N(CCC(=O)O)Cc2ccc(Cl)c(Cl)c2)n1 |
| 197 to 200 °C | CC(C)c1cccc(C(C)C)c1NC(=O)CS(=O)(=O)CCN1CCN(c2ccccc2)CC1 |
| 125 to 128 °C | CN1CCC(=C2c3ccccc3Sc3ccc(S(=O)(=O)C(F)(F)F)cc32)CC1 |
| > 240 °C | C(=Cc1c[nH]cn1)CC(c1ccccc1)c1ccccc1 |
| 182 to 183 °C | COC(=O)C(Oc1ccc(Cl)cc1)c1ccc(Oc2ccc(S(C)(=O)=O)cc2)cc1 (stereo not drawn) |
| 198 to 200 °C | CCCOC(=O)c1cc(NC(=O)c2ccccc2O)cc(Br)c1O |
| 90 to 93 °C | CN(CC(=O)c1cccn1Cc1ccc(Cl)cc1[N+](=O)[O-])Cc1ccccc1 |
| 88 to 91 °C | COC(=O)COC(=O)C(Cl)=Cc1cc(-n2ncc(C(F)(F)F)c(C)c2=O)c(F)cc1Cl |
| 154 °C | Cc1nc(NC(=O)Cc2cccs2)c(Br)c(C)c1Br |
| 207 to 208 °C | Nc1ccc(C(=O)Nc2ccc3oc4c(c3c2)CCCC4)cc1 |
| 184 °C | NNC(=O)c1[nH]cc(OCc2ccccc2)c(=O)c1Br |
| 129 to 132 °C | COc1ccc2c(c1OC)CCN(Cc1ccccc1)Cc1cc3c(cc1C=C2)OCO3 |
| 137 to 138 °C | Nc1cc(Cl)ccc1C(=O)c1cccc(O)c1 |
| 184 to 185 °C | NC(=O)C1CCc2c(sc3cc(F)ccc23)C1 (stereo not drawn) |
| 156 to 158 °C | CC(C)(n1cncn1)C(O)(Cn1cncn1)c1ccc(F)cc1 (stereo not drawn) |
| 190 °C | N#Cc1cc(O)n(-c2ccccc2)n1 |
| 243 °C | Cc1c(-c2ccccc2)oc2cc(NC(=O)C(=O)O)ccc2c1=O |
| 84.5 to 85.5 °C | CCOCCN(CCOCC)NC(=O)NS(=O)(=O)c1ccc(Cl)cc1 |
| 94 to 95 °C | CC(C)C[C@H](NC(=O)OCc1ccccc1)C(=O)N[C@@H](Cc1ccccc1)C(=O)COCc1ccco1 |
| 208 to 211 °C | Cc1cc2c(-c3cn(C)c(C(F)(F)F)cc3=O)c(F)cc(Cl)c2o1 |

| melting point | Structure (SMILES) |
| --- | --- |
| 58 to 59 °C | CCCCCCCCc1ccc(OCC(=O)Cn2cccc2)cc1 |
| 88 to 89 °C | COc1ccc(-n2nc(CO)c3c2CCC3)cc1 |
| 245 to 250 °C | CC(C)(C)C1C(O)=C(C2=NS(=O)(=O)c3c(NS(C)(=O)=O)cccc32)C(=O)N1Cc1ccc(F)cc1 (stereo not drawn) |
| 106 °C | CCCCCC1(O)CCC2(C)C(CCC3C4CCC(C5(C)OCCO5)C4(C)CC(=O)C32)C1 (stereo not drawn) |
| 140 to 141 °C | Cc1nc(CC2(C)CCN(c3ccc(F)cc3)CC2)nc(C(=O)NCC(=O)O)c1O |
| 210 °C | O=C(O)COc1ccc(-c2c(Br)ccc3sc4ccccc4c23)cc1 |
| 205 to 206 °C | CN(C(=O)CN1C(=O)c2ccccc2S1(=O)=O)c1ccccc1 |
| 125 to 127 °C | CN(C)CN=c1[nH]c2cnccc2s1 |
| 95 to 96 °C | FC(F)(F)c1ccc(C(Cl)=NN=Cc2ccccc2)cc1 |
| 166 to 167 °C | CCCCCCCCN(C(=O)Nc1ccc(C(=O)O)cc1)c1ccc2c(c1)C(C)(C)CCC2(C)C |
| 169 °C | CC(C)(C)OC(=O)N[C@@H](Cc1ccc(O)cc1)C(=O)N[C@H](Cc1ccccc1)C(=O)NCC(=O)OCc1ccccc1 |
| 140 °C | Nc1cc(Br)nc(Br)c1[N+](=O)[O-] |
| 149 to 151 °C | O=C(O)c1ccccc1C(=O)NNC(=S)Nc1ccccc1 |
| 194 °C | Clc1nc2ccccc2c2c(CCC3CCNCC3)n(-c3ccccc3)nc12 |
| 128 to 129 °C | COC(=O)c1sc2cc(CCl)ccc2c1C |
| 184 to 187 °C | COCCc1nc2c(N)nc3ccccc3c2n1CCOCCNC(=O)c1ccccc1 |
| 102 to 104 °C | CN(C)c1nsc2nc3ccccc3n12 |
| 124 to 126 °C | COc1cc(NC(=O)OC(C)(C)C)cc(OC)c1SC |
| 165 to 167 °C | CCOCc1nc2c(N)nc3c(c2n1CCCCS(=O)(=O)N(C)C)CCCC3 |
| 220 to 224 °C | NC(=O)c1cccc(OC2C(C(=O)O)=CC=CN2Cc2ccccc2Cl)c1 (stereo not drawn) |
| 122 to 123 °C | Cc1nnsc1C(=O)Nc1ccc(-n2nc(C(F)(F)F)cc2OC(F)F)cc1 |
| 225 to 227 °C | CC(=O)N1CC(C)(C)c2cc3nc(-c4ccccc4)[nH]c3cc21 |
| 109 to 111 °C | O=C(NCCc1cccc2ccc(OC(c3ccccc3)c3ccccc3)cc12)C1CC1 |
| 117 to 119 °C | Cn1nc(NC2c3cc(C#N)ccc3OC(C)(C)C2O)ccc1=O (stereo not drawn) |

| melting point | Structure (SMILES) |
| --- | --- |
| 144 to 145 °C | CC(=O)NC(CO)C(O)c1ccc(C=Cc2csc3ccccc23)s1 (stereo not drawn) |
| 75 to 77 °C | CC(C)OC(=O)Nc1cccc(O)c1 |
| 326 to 330 °C | CC1(C)C(=O)Nc2cc(-c3nc4ccccc4[nH]3)ccc21 |
| 215 to 216 °C | COC(=O)C1c2c(C)c(OC(=O)c3ccc([N+](=O)[O-])cc3)c(C)c(C)c2OC1(C)C (stereo not drawn) |
| 185 to 187 °C | CC(Oc1ccc2oc3cc(Cl)ccc3c2c1)C(N)=O (stereo not drawn) |
| 252 °C | O=c1[nH]c2ccc([N+](=O)[O-])cc2s1 |
| 191 to 193 °C | Cc1cc(Cc2ccccc2)nc(Nc2ccc(C(=O)NN)c(F)c2)n1 |
| 168 to 170 °C | CN1CCN(C(=O)Nc2c(C(=O)c3ccccc3)[nH]c3cc(Cl)ccc23)CC1 |
| 91 to 93 °C | CCNC(=O)C1CN(C(c2ccccc2)c2ccccc2)C1 |
| > 210 °C | Cc1c(F)c(Oc2cccc(C(=N)N)c2)nc(Oc2cccc(C(=N)N)c2)c1F |
| 97 to 98 °C | O=C(NCCCC[C@@H](C(=O)O)n1c2ccccc2c2ccccc21)c1ccc(C(=O)c2ccccc2)cc1 |
| 128 to 130 °C | CCC(O)(c1ccccc1)c1ccc(C(=O)O)cc1 (stereo not drawn) |
| 232 to 234 °C | O=C1NC2(CCCCC2)c2ccccc21 |
| 80 °C | COC(=O)CCc1cc2c(c(C(C)(C)C)c1)OC(=O)C2c1cc(C)ccc1C (stereo not drawn) |
| 209 to 211 °C | COc1cc(-c2ccccc2Cl)c(Cl)cc1C(=O)N1Cc2ccc(C(=O)O)n2Cc2ccccc21 |
| 131 to 134 °C | CCCCc1cccc2c3c([nH]c12)C(CC)(CC(=O)O)CCC3 (stereo not drawn) |
| 88 to 90 °C | CC(=CC#N)c1cccc2cc[nH]c12 |
| 109 to 110 °C | CCOC(=O)c1cc2cc(-c3ccccc3)ccc2o1 |
| 163 to 165 °C | O=C(c1ccccc1)c1cnn2c(-c3ccccc3)ccnc12 |
| 122 to 124 °C | CCCCN(Cc1ccc(-c2ccccc2-c2nnnn2C(c2ccccc2)(c2ccccc2)c2ccccc2)cc1)c1nc(SC)ncc1C(=O)OCC |
| 93 to 96 °C | CC(=O)c1cc(-c2ccncc2)sc1Oc1ccccc1F |
| 118 to 119 °C | O=C(CNC(=O)c1ccccc1)c1ccsc1 |
| 96 °C | FC(F)(F)c1cccc(-c2cc(C(F)(F)F)n3nccc3n2)c1 |
| 105 to 107 °C | CCCN(C1=C(O)CC(C2CCCC2)(C2CCCC2)OC1=O)c1cccc(NS(=O)(=O)c2ccccn2)c1 |

| melting point | Structure (SMILES) |
| --- | --- |
| 223 to 227 °C | COc1ccccc1N1CCN(CCn2c(=O)[nH]c3ccc(O)c(O)c3c2=O)CC1 |
| 180 to 182 °C | CCN(CC)c1ccc(C(=O)C#Cc2ccncn2)cc1 |
| 120 to 121 °C | Cn1cnc(=O)c(-c2cccc(Br)c2)c1 |
| > 250 °C | O=C(O)c1cnc2c(NC(=O)c3c(Cl)cccc3Cl)cccc2c1 |
| 163 to 166 °C | Cc1cc2c(cc1C1=NNC(=O)CC1C)NC(=O)CO2 (stereo not drawn) |
| 110 to 113 °C | COc1cc(NC(NC(C)C(C)(C)C)=C(C#N)S(C)(=O)=O)cc(C(F)(F)F)c1 (stereo not drawn) |
| 144 to 152 °C | COc1cc2c(Cl)c(C(=O)Cl)sc2cc1OCc1ccccc1 |
| 148 to 149 °C | COc1ccccc1C(=O)CN1CCC(=O)C(C(c2ccc(F)cc2)c2ccc(F)cc2)C1 (stereo not drawn) |
| 169 to 170 °C | Cc1ccccc1NC(=O)CN1CC2CCC(C1)N2S(=O)(=O)c1cccc2nsnc12 |
| 198 to 200 °C | O=C(O)Cc1ccc2c(c1)sc1cc(Cl)ccc12 |
| 250 to 252 °C | COC(=O)CSc1nc(N2CCN(c3ncccn3)CC2)ncc1[N+](=O)[O-] |
| 190 °C | CC(C)(C)c1cc(Cn2nc(CCCCc3nn(Cc4cc(C(C)(C)C)c(O)c(C(C)(C)C)c4)c(=O)o3)oc2=O)cc(C(C)(C)C)c1O |
| > 250 °C | Nc1nc2c(ncn2C2C=CC(CO)O2)c(=O)[nH]1 (stereo not drawn) |
| 123 to 126 °C | CC(C)C(N)=NC(=Nc1ccccc1)N1CCOCC1 |
| 150 to 152 °C | CC(=O)NCCc1cn(S(=O)(=O)c2c(Cl)nc3sccn23)c2ccccc12 |
| 91 to 93 °C | CCCn1c(=O)[nH]c2c(C)ccc(OCC(O)CN3CCC(COc4ccccc4)CC3)c21 (stereo not drawn) |
| 154 to 156 °C | O=C1NCCc2ccc(OCCCCN3CCN(c4cccc5c4OCCC5)CC3)nc2N1 |
| 265 to 266 °C | COc1ccc2c(c1)C(=O)c1cc(-c3nnn[nH]3)ccc1C2=O |
| 151 to 152 °C | COC(=O)Cc1ccc(OCC2CN(c3ccc(C(=N)N)cc3)C(=O)O2)cc1 (stereo not drawn) |
| 204 to 208 °C | CCC(O)c1cnc2c(C)c(NC(=O)c3ccc(-c4ccc(F)cc4)cc3)ccc2c1 (stereo not drawn) |
| 59 to 60 °C | COc1cc(Br)c(OC)c(CO)c1 |
| 194 to 195 °C | C=Cc1c(N)nc(-c2ccc(Cl)nc2)nc1C(=O)OC |

| Structure (SMILES) | melting point |
| --- | --- |
| COc1cc2c(cc1Br)C(c1ccccc1Cl)=NC1=C(C)NNC1=N2 | 210 to 211 °C |
| CCCCCN1C(=O)CN=C(c2ccccc2)c2ccccc21 | 93 to 95 °C |
| Cc1cccc2c1N(CC(=O)N1CC3CCC(CC3)C1)C(=O)C(NC(=O)Nc1cccc(C=NO)c1)N=C2c1ccccc1F (stereo not drawn) | 196 to 199 °C |
| Cc1cc(C(=O)NCO)ncc1C(c1c(F)ccc(F)c1F)S(=O)(=O)CCC(F)(F)F (stereo not drawn) | 146 to 148 °C |
